Measurements reported in patent US8952177B2 (Janssen Pharmaceutica NV, priority 2013, dated 2015).
Structures can show the parent of a compound that is named as a salt. Where two headings read alike, the source gives them in different places.

Experiments:
[1] = tested on: leukotriene pathway in human whole blood (LTB4); test: Human whole blood assay (LTB4 after calcium ionophore A23187 stimulation); type: cell-based; settings: human whole blood diluted 1:1 in RPMI, 15 min pre-incubation, A23187 7 μg/mL for 30 min at 37° Celsius
In short: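 Heparinised human whole blood, diluted 1:1 in RPMI, was preincubated with compound for 15 min at 37° C. before stimulation with A23187 (7 μg/mL) for 30 min. Plasma LTB4 was measured by immunoassay kit and IC50 obtained by 4-parameter fit; single replicate per plate, blood from at least one donor.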

human FLAP = human FLAP (Homo sapiens (Human), UniProt P20292); test: FLAP binding assay (HTRF format); settings: read-out: FLAP Binding wild type HTRF Ki
Chain of human FLAP (P20292 whole entry): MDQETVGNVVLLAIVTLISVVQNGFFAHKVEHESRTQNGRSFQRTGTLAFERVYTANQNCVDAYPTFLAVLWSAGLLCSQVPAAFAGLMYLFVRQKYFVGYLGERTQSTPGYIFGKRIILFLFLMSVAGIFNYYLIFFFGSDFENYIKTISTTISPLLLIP
In short: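 His6-tagged human FLAP in Sf-9 membranes competed against a FITC-labelled indole FLAP modulator in HTRF format; 2 h reaction, read as HTRF ratio. Ki and IC50 from averaged duplicate ratios over 2–20 runs of two plates each; parenthetical numbers give run count.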

[2] = human FLAP-containing Sf-9 membranes, 25 nM HTRF ligand, 2 h, average of runs

| Compound | IC50 ([1]; Homo sapiens) | Ki (human FLAP; [2]) | IC50 [1] | Ki (human FLAP) |
| --- | --- | --- | --- | --- |
| Cn1cc(F)c(COc2ccc3nc([C@@H]4CCCC[C@@H]4C(=O)O)n(Cc4ccc(OC(F)(F)F)cc4F)c3c2)n1 (racemic) [Example 85, racemic cis-2-{6-[(4-Fluoro-1-methyl-1H-pyrazol-3-yl)methoxy]-1-[2-fluoro-4-(trifluoromethoxy)benzyl]-1H-benzimidazol-2-yl}cyclohexanecarboxylic acid] | 680 nM | 1.4 nM | – | – |
| Cc1ccc(Cn2c(C3[C@@H](C(=O)O)C3(C)C)nc3c(F)cc(OCc4ccc(C)cn4)cc32)cc1 (mixture of isomers) [Example 64, racemic cis-3-{4-Fluoro-1-(4-methylbenzyl)-6-[(5-methylpyridin-2-yl)methoxy]-1H-benzimidazol-2-yl}-2,2-dimethylcyclopropanecarboxylic acid as the TFA salt] | 3280 nM | 290 nM | – | – |
| Cc1ccc(COc2ccc3nc([C@H]4CCCC[C@H]4C(=O)O)n(Cc4ccc(-c5ncc(Cl)cn5)cc4)c3c2)nc1 (racemic) [Example 80, racemic cis-2-{1-[4-(5-Chloropyrimidin-2-yl)benzyl]-6-[(5-methylpyridin-2-yl)methoxy]-1H-benzimidazol-2-yl}cyclohexanecarboxylic acid] | 300 nM | 3.3 nM | – | – |
| Cc1ccc(COc2cc(Cl)c3nc(CC4(C(=O)O)CCCC4)n(Cc4ccc(Br)cc4)c3c2)nc1 [Example 78, 1-({1-(4-Bromobenzyl)-4-chloro-6-[(5-methylpyridin-2-yl)methoxy]-1H-benzimidazol-2-yl}methyl)cyclopentanecarboxylic acid] | 14000 nM | 24 nM | – | – |
| Cn1cc(Cl)c(COc2ccc3nc([C@@H]4CCCC[C@@H]4C(=O)O)n(Cc4ccc(N5CCC(F)CC5)cc4)c3c2)n1 (racemic) [Example 87, racemic cis-2-{6-[(4-Chloro-1-methyl-1H-pyrazol-3-yl)methoxy]-1-[4-(4-fluoropiperidin-1-yl)benzyl]-1H-benzimidazol-2-yl}cyclohexanecarboxylic acid] | 1780 nM | 15 nM | – | – |
| Cc1cnc(COc2ccc3nc([C@@H]4CCCC[C@@H]4C(=O)O)n(Cc4ccc(N5CCC(C)CC5)cc4)c3c2)c(F)c1 (racemic) [Example 178, racemic cis-2-{6-[(3-Fluoro-5-methylpyridin-2-yl)methoxy]-1-[4-(4-methylpiperidin-1-yl)benzyl]-1H-benzimidazol-2-yl}cyclohexanecarboxylic acid] | 47 nM | 1.2 nM | – | – |
| Cc1ccc(Cn2c(CC3(C(=O)O)CCCC3)nc3c(F)cc(OCc4ccc(C)cn4)cc32)cc1 [Example 73, 1-({4-Fluoro-1-(4-methylbenzyl)-6-[(5-methylpyridin-2-yl)methoxy]-1H-benzimidazol-2-yl}methyl)cyclopentanecarboxylic acid as the TFA salt] | 3250 nM | 52 nM | – | – |
| Cc1ccc(COc2cc(F)c3nc(CC4(C(=O)O)CCCC4)n(Cc4ccc(OC(F)(F)F)cc4)c3c2)nc1 [Example 72, 1-({4-Fluoro-6-[(5-methylpyridin-2-yl)methoxy]-1-[4-(trifluoromethoxy)benzyl]-1H-benzimidazol-2-yl}methyl)cyclopentanecarboxylic acid as the TFA salt] | – | – | 1930 nM | 60 nM |
| Cc1cnc(COc2ccc3nc(CC(C)(C)C(=O)O)n(Cc4ccc(N5CCC(C(C)(C)C)CC5)cc4)c3c2)c(F)c1 [Example 184, 3-{1-[4-(4-tert-Butylpiperidin-1-yl)benzyl]-6-[(3-fluoro-5-methylpyridin-2-yl)methoxy]-1H-benzimidazol-2-yl}-2,2-dimethylpropanoic acid] | 800 nM | 15 nM | – | – |
| Cn1ccc(COc2ccc3nc([C@@H]4CCCC[C@@H]4C(=O)O)n(Cc4ccc(OC(F)(F)F)cc4F)c3c2)n1 (stereo in doubt) [Example 51, racemic cis-2-{1-[2-Fluoro-4-(trifluoromethoxy)benzyl]-6-[(1-methyl-1H-pyrazol-3-yl)methoxy]-1H-benzimidazol-2-yl}cyclohexanecarboxylic acid] | 340 nM | 8 nM | – | – |
| Cc1ccc(Cn2c([C@@H]3CCCC[C@@H]3C(=O)O)nc3c(F)cc(OCc4ccn(C)n4)cc32)cc1 (racemic) [Example 97, racemic cis-2-{4-Fluoro-1-(4-methylbenzyl)-6-[(1-methyl-1H-pyrazol-3-yl)methoxy]-1H-benzimidazol-2-yl}cyclohexanecarboxylic acid as the HCl salt] | 300 nM | 7.5 nM | – | – |
| Cn1ccc(COc2ccc3nc([C@@H]4CCCC[C@@H]4C(=O)O)n(Cc4ccc(OC(F)(F)F)cc4F)c3c2)n1 (stereo in doubt) [Example 52, (1S*,2R*)-2-{1-[2-Fluoro-4-(trifluoromethoxy)benzyl]-6-[(1-methyl-1H-pyrazol-3-yl)methoxy]-1H-benzimidazol-2-yl}cyclohexanecarboxylic acid] | > 10000 nM | > 10000 nM | – | – |

Now from value to molecule, other results behind:

| IC50 ([1]; Homo sapiens) | Ki (human FLAP; [2]) | Compound | IC50 [1] | Ki (human FLAP) |
| --- | --- | --- | --- | --- |
| 190 nM | 5.9 nM | COc1cc(OC(F)(F)F)ccc1Cn1c([C@H]2CCCC[C@H]2C(=O)O)nc2ccc(OCc3ccn(C)n3)cc21 (racemic) [Example 84, racemic cis-2-{1-[2-Methoxy-4-(trifluoromethoxy)benzyl]-6-[(1-methyl-1H-pyrazol-3-yl)methoxy]-1H-benzimidazol-2-yl}cyclohexanecarboxylic acid] | – | – |
| 2320 nM | 10 nM | CCC(CC)(Cc1nc2ccc(OCc3ccc(C)cn3)cc2n1Cc1ccc(Br)cc1)C(=O)O [Example 8, 2-({1-(4-Bromobenzyl)-6-[(5-methylpyridin-2-yl)methoxy]-1H-benzimidazol-2-yl}methyl)-2-ethylbutanoic acid as the TFA salt] | – | – |
| 170 nM | 6.6 nM | Cn1ccc(COc2ccc3nc([C@@H]4CCCC[C@@H]4C(=O)O)n(Cc4ccc(OC(F)(F)F)cc4F)c3c2F)n1 (racemic) [Example 91, racemic cis-2-{7-Fluoro-1-[2-fluoro-4-(trifluoromethoxy)benzyl]-6-[(1-methyl-1H-pyrazol-3-yl)methoxy]-1H-benzimidazol-2-yl}cyclohexanecarboxylic acid] | – | – |
| 1660 nM | 24 nM | CCC(CC)(Cc1nc2ccc(OCc3ccc(C)cn3)cc2n1Cc1ccc(OC(F)(F)F)cc1)C(=O)O [Example 22, 2-Ethyl-2-({6-[(5-methylpyridin-2-yl)methoxy]-1-[4-(trifluoromethoxy)benzyl]-1H-benzimidazol-2-yl}methyl)butanoic acid] | – | – |
| – | 12 nM | CCC(CC)(Cc1nc2ccc(OCc3ccn(C)n3)cc2n1Cc1ccc(-c2ccc(C(F)(F)F)cc2)cc1F)C(=O)O [Example 188] | 550 nM | – |
| 480 nM | 0.64 nM | CCC(CC)(Cc1nc2ccc(OCc3ncc(C)cc3F)cc2n1Cc1ccc(Br)cc1)C(=O)O [Example 136, 2-({1-(4-Bromobenzyl)-6-[(3-fluoro-5-methylpyridin-2-yl)methoxy]-1H-benzimidazol-2-yl}methyl)-2-ethylbutanoic acid] | – | – |
| 560 nM | 3 nM | CCC(CC)(Cc1nc2ccc(OCc3ncc(C)cc3F)cc2n1Cc1ccc(N2CCC(C)CC2)cc1)C(=O)O [Example 180, 2-Ethyl-2-({6-[(3-fluoro-5-methylpyridin-2-yl)methoxy]-1-[4-(4-methylpiperidin-1-yl)benzyl]-1H-benzimidazol-2-yl}methyl)butanoic acid] | – | – |
| 1010 nM | 30 nM | Cn1ccc(COc2ccc3nc([C@@H]4CCCC[C@@H]4C(=O)O)n(Cc4ccc(OC(F)(F)F)cc4Cl)c3c2)n1 (racemic) [Example 103, racemic cis-2-{1-[2-Chloro-4-(trifluoromethoxy)benzyl]-6-[(1-methyl-1H-pyrazol-3-yl)methoxy]-1H-benzimidazol-2-yl}cyclohexanecarboxylic acid as the HCl salt] | – | – |
| > 10000 nM | 56 nM | CCC(CC)(Cc1nc2ccc(OCc3ccc(C)cn3)cc2n1Cc1cccc(Br)c1)C(=O)O [Example 14, 2-({1-(3-Bromobenzyl)-6-[(5-methylpyridin-2-yl)methoxy]-1H-benzimidazol-2-yl}methyl)-2-ethylbutanoic acid] | – | – |
| 710 nM | 30 nM | Cc1cnc(COc2ccc3nc(CC(C)(C)C(=O)O)n(Cc4ccc(N5CCC(F)CC5)cc4F)c3c2)c(F)c1 [Example 186] | – | – |
| 1440 nM | ~250 nM | CCC(CC)(Cc1nc2ccc(OCc3ccn(C)n3)cc2n1Cc1ccc(OC(F)(F)F)cc1C)C(=O)O [Example 92] | – | – |
| 880 nM | 13 nM | Cc1cnc(COc2ccc3nc(CC(C)(C)C(=O)O)n(Cc4ccc(N5CC(C(F)(F)F)C5)cc4F)c3c2)c(F)c1 [Example 183, 3-(6-[(3-Fluoro-5-methylpyridin-2-yl)methoxy]-1-{2-fluoro-4-[3-(trifluoromethyl)azetidin-1-yl]benzyl}-1H-benzimidazol-2-yl)-2,2-dimethylpropanoic acid] | – | – |
| 140 nM | 1.4 nM | Cn1ccc(COc2ccc3nc([C@@H]4CCCC[C@@H]4C(=O)O)n(Cc4cccc(-c5ccc(C(F)(F)F)cc5)c4)c3c2)n1 (racemic) [Example 150, racemic cis-2-(6-[(1-Methyl-1H-pyrazol-3-yl)methoxy]-1-{[4′-(trifluoromethyl)biphenyl-3-yl]methyl}-1H-benzimidazol-2-yl)cyclohexanecarboxylic acid] | – | – |
